Experimental data taken from patent US20030186464A1, “Surface plasmon resonance methods” (priority 2002, published 2003).
Residue numbers refer to the chain shown, from its start.

Tests used:
[1] = biological target: T1, IL1R-I13C (Homo sapiens, UniProt P14778, I30C); assay: SPR ranking of reversible covalent (disulfide) bond formation with immobilized protein-thiolate (Examples 5-6); format: binding; conditions: disulfide compound 100 μM, reductant 500 μM; fraction of protein-thiolate on the chip covalently bound
T1 construct: soluble interleukin-1 receptor, type 1 having a mutation to cysteine; made in house; host or cells: E. coli or baculovirus-infected insect cells (TN-5B1-4, High Five)
T1 sequence (P14778 18-336 I30C): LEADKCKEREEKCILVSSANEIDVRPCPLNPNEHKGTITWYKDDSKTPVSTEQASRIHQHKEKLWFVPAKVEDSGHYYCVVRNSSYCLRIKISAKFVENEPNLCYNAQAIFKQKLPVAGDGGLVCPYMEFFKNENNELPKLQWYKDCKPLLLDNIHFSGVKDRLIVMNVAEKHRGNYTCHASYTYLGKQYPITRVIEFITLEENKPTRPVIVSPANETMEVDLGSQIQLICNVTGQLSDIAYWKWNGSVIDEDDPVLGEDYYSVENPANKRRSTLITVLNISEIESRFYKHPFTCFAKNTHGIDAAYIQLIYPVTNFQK
Protocol: (§1) A CM5 sensor chip (Biacore-BR-1000-14) is docked in a Biacore 2000 SPR device, and the chip is normalized using a standard Biacore protocol with 70% glycerol. The chip is equilibrated in PBS for approximately 1 hr at a 20 μL/min flow rate. The dextran surface of the chip is activated through an NHS/EDC coupling. This is done using an amine coupling kit (Biacore—BR-100-50) containing N-hydroxysuccinimide (NHS 11.5 mg/mL) and N-ethyl-N′-(3-dimethylaminopropyl) carbodiimide hydrochloride (EDC 75 mg/mL). The two reagents are mixed in a 1:1 ratio and then 35 μL of the mixture are injected at 5 μL/min. The chip is activated one flow cell at a time, and that flow cell is subsequently labeled with protein.
(§2) Protein having at least one cysteine is expressed in E. coli or baculovirus-infected insect cells (TN-5B1-4, High Five) and purified using standard procedures. This protein-thiolate is treated with 10 mM βME overnight to reduce the surface cysteine. The βME is removed and the protein-thiolate is placed in 100 mM MES Buffer pH 5.75 (Nap-5 column, Pierce). The protein-thiolate is then concentrated to 100 μM using a Millipore-UFV5BCCOO 5K NMWL membrane, 0.5 mL centrifugal filter and tube.
(§3) A sensorgram is then run over the activated flow cell at 2 μL/min of PBS. The protein-thiolate solution is then injected at 2 μL/min for 10 min. After injection one measures the change in RUs by marking the RUs at t=0 and t final and subtracting them. This subtraction gives the total RU change that is related to the total mass of protein successfully coupled to the CM5 surface. This value will later be used to determine stoichiometry of binding. This procedure is then repeated with various cysteine mutants that are immobilized on the adjacent cells. The sensorgram is then altered to flow across all 4 cells on the CM5 chip at 5,L/min PBS. A solution of 1 M ethanolamine hydrochloride-NaOH pH 8.5 (Amine coupling kit, Biacore—BR-100-50) is injected at 5 μL/min for 7 min. The chip is equilibrated overnight in 100 mM Tris pH 8+0.05% azide+1% DMSO at 20 μL/min.
(§4) Compounds are synthesized with a reactive disulfide linker (see, for example compound 2t in Example 2). From previous “tethering” experiments compounds that preferentially bind and form a covalent bond with specific cysteine mutants at the active sites of proteins are chosen for these SPR experiments. The compounds are known to form this covalent attachment at relatively high levels of reductant [βME (2-mercaptoethanol, Sigma)], indicating a […] noncovalent binding interaction.
(§5) Dilutions series of the compounds are typically performed to produce seven solutions with compound concentrations of 50 mM, 25 mM, 12.5 mM, 6.25 mM, 3.12 mM, 1.56 mM, and 0.78 mM in DMSO, with a final eighth point as a DMSO only baseline. The compounds are then diluted into 100 mM Tris pH 8+0.05% azide+500 μM βME, to final compound concentrations of 500 μM, 250 μM, 125 μM, 62.5 μM, 31.2 μM, 15.6 μM, and 7.8 μM. The compound solutions are injected from lowest concentration to highest at 2 μL/min for 20 min. The SPR software method includes a 1 min wash before injection, the injection and then a 10 min wash after the injection. This particular protocol employs a regeneration step to reduce off the compound that is covalently bound before the next injection. The regeneration is accomplished by injecting 10 mM βME at 2 μL/min for 20 min.
(§6) These dilution series are analyzed by BIAevaluation software version 3.0. Sensorgrams are plotted for compound binding to cells of the chip labeled with protein-thiolate. The sensorgrams are modified by subtracting the sensorgrams for the appropriate compound dilutions over cell 1 (a blank cell). This subtraction step removes any RU changes that might occur due to nonspecific interactions between the compound and the chip itself or refractive changes in the buffer. Finally, the eight sensorgrams produced from the compound dilution series are zeroed at the average of their starting RUs. […]

[2] = biological target: T2, IL1R-I29C (Homo sapiens, UniProt P14778); assay: as above; format: binding; conditions: disulfide compound 100 μM, reductant 500 μM; fraction of protein-thiolate on the chip covalently bound
T2 construct: soluble interleukin-1 receptor, type 1 having a mutation to cysteine; made in house; host or cells: E. coli or baculovirus-infected insect cells (TN-5B1-4, High Five)
T2 sequence (P14778 18-336 E146C): T1 sequence (P14778 18-336 I30C) with C13I, E129C
Protocol: as §1, §2, §3, §4, §5, §6

Row | SMILES | Fraction bound IL1R-I13C [1] | Fraction bound IL1R-I29C [2]
1 | CC(=O)c1ccccc1NC(=O)c1ccc(NC(=O)CSSCCN)cc1 [Compound 12t] | 0.5 | 0.0
2 | COC(=O)c1cccc(NC(=O)c2ccc(NC(=O)CSSCCN)cc2)c1 [Compound 13t] | 0.0 | 0.0
3 | NCCSSCCC(=O)NC(c1ccccc1)c1cc2ccccc2cn1 (centres unmarked) [Compound 14t] | 0.0 | 0.6
4 | COc1cc(C(=O)N2CCCC(C(=O)NCCSSCCN)C2)ccc1O (centres unmarked) [Compound 15t] | 0.0 | 0.2
